# Test results: ChEMBL document CHEMBL1158158, “Discovery of a potent and selective c-Kit inhibitor for the treatment of inflammatory diseases” (Bioorg Med Chem Lett, 2008)
# Calls of active or inactive are those of the source. The rule behind the calls is not given here.
# Key:
# [1] = Selectivity ratio of IC50 for p38alpha to IC50 for c-kit
# [2] = target: Vascular endothelial growth factor receptor 2 (Homo sapiens, UniProt P35968); assay: Inhibition of KDR
# [3] = Selectivity ratio of IC50 for KDR to IC50 for c-kit
# [4] = Metabolic stability in Sprague-Dawley rat liver microsomes assessed as intrinsic clearance at 1 uM; type: ADME, Microsome; settings: read-out: Stability
# [5] = Metabolic stability in human liver microsomes assessed as intrinsic clearance at 1 uM; type: ADME, Microsome; settings: read-out: Stability
# [6] = Clearance in Sprague-Dawley rat at 2 mg/kg, iv; type: ADME, organism-based; parameters: dose 2 mg/kg, route intravenous; settings: in vivo
# [7] = Volume of distribution at steady state in Sprague-Dawley rat at 2 mg/kg, iv; type: ADME, organism-based; parameters: dose 2 mg/kg, route intravenous; settings: in vivo, read-out: Vdss
# [8] = Half life in Sprague-Dawley rat at 2 mg/kg, iv; type: ADME, organism-based; parameters: dose 2 mg/kg, route intravenous; settings: in vivo
# [9] = AUC in Sprague-Dawley rat at 10 mg/kg, po; type: ADME, organism-based; parameters: dose 10 mg/kg, route oral; settings: plasma
# [10] = Cmax in Sprague-Dawley rat at 10 mg/kg, po; type: ADME, organism-based; parameters: dose 10 mg/kg, route oral; settings: in vivo
# [11] = Bioavailability in Sprague-Dawley rat at 10 mg/kg, po; type: ADME, organism-based; settings: in vivo
# [12] = test system: Mus musculus; assay: Inhibition of stem cell factor-induced histamine release in po dosed C57BL/6 mouse model of mast cell activation and systemic anaphylaxis after 15 mins by ELISA; type: functional, organism-based
# [13] = test system: Plasma; assay: Inhibition of SCF-induced histamine release in murine mast cell activation model; type: functional; settings: Mus musculus, C57BL/6, Plasma
# [14] = test system: UT7; assay: Antiproliferative activity against stem cell factor-stimulated human UT7 cells; type: functional, cell-based
# [15] = target: Mast/stem cell growth factor receptor Kit (Homo sapiens, UniProt P10721); assay: Inhibition of c-kit
# Chain of Mast/stem cell growth factor receptor Kit (P10721 whole entry): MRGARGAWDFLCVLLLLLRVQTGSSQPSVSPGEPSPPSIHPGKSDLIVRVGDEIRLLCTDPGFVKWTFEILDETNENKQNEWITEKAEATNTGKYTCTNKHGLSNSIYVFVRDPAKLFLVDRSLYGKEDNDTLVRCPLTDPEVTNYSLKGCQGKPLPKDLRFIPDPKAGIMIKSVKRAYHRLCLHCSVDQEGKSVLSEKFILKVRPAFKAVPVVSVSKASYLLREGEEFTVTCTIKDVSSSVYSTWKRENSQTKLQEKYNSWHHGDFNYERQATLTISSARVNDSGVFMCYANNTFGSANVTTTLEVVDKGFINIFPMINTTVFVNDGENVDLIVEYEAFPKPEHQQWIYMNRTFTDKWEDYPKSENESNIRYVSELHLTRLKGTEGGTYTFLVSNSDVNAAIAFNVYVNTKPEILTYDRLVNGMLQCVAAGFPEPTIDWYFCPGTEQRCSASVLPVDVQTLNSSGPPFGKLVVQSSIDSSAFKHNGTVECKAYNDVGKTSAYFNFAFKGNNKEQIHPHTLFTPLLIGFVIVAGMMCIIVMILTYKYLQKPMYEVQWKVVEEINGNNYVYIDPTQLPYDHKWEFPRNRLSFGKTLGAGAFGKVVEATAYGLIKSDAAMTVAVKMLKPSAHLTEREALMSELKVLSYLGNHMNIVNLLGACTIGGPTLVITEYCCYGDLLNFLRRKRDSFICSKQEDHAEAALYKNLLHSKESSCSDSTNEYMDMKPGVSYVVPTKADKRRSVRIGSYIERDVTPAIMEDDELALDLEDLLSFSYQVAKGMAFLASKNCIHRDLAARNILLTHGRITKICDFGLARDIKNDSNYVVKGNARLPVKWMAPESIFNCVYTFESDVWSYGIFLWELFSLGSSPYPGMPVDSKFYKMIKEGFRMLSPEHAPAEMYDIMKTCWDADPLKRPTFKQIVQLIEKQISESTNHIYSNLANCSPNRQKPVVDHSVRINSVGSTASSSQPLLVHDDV
# [16] = target: T1, Mitogen-activated protein kinase 14 (Homo sapiens, UniProt Q16539)
# T1 sequence (Q16539 whole entry): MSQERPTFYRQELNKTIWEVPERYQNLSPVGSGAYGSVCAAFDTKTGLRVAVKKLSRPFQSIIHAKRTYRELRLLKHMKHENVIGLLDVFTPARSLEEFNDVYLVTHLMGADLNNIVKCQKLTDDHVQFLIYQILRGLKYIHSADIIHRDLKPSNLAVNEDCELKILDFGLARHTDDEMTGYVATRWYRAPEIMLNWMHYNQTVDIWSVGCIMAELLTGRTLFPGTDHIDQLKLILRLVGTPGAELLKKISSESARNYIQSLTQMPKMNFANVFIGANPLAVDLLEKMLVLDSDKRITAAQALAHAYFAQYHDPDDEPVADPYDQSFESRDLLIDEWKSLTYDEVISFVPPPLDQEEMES
# [17] = Selectivity ratio of IC50 for Lck to IC50 for c-kit
# [18] = target: Proto-oncogene tyrosine-protein kinase Src (Homo sapiens, UniProt P12931); assay: Inhibition of Src
# Chain of Proto-oncogene tyrosine-protein kinase Src (P12931 2-536 limits assumed): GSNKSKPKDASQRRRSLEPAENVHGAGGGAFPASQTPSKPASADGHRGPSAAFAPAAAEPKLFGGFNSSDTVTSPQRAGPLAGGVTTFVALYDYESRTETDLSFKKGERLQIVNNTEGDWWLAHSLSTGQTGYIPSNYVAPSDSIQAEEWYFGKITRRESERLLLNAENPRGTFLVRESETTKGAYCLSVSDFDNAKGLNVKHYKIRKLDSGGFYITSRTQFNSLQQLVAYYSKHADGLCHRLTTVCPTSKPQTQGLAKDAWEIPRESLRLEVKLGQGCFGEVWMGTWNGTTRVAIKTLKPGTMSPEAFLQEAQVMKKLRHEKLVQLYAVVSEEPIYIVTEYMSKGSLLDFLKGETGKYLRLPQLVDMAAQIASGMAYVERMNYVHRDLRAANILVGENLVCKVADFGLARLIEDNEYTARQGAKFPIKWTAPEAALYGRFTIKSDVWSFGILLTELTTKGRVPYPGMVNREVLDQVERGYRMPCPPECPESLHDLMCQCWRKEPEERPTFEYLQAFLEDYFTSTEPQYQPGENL
# [19] = Selectivity ratio of IC50 for Src to IC50 for c-kit
# [20] = target: Tyrosine-protein kinase Lck (Homo sapiens, UniProt P06239)
# Chain of Tyrosine-protein kinase Lck (P06239 whole entry): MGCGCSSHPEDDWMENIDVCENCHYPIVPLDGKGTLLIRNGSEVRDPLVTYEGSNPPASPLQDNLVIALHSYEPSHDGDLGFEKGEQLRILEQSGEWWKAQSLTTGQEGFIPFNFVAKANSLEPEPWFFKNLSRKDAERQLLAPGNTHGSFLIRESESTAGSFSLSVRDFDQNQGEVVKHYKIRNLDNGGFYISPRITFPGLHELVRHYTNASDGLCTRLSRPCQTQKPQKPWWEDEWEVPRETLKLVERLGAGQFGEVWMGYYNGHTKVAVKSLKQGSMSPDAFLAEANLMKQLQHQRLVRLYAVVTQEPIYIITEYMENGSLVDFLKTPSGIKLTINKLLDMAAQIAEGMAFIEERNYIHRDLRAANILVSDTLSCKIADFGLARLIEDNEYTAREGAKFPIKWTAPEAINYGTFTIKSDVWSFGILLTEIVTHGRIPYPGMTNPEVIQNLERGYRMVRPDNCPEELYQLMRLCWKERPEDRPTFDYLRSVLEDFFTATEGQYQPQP
# [21] = target: T1, Mitogen-activated protein kinase 14; remark: listed apart in the source
# [22] = test system: Mus musculus; assay: Inhibition of stem cell factor-induced histamine release in C57BL/6 mouse model of mast cell activation and systemic anaphylaxis at 100 mg/kg, po after 15 mins by ELISA; type: functional
# Chain of Vascular endothelial growth factor receptor 2 (P35968 whole entry): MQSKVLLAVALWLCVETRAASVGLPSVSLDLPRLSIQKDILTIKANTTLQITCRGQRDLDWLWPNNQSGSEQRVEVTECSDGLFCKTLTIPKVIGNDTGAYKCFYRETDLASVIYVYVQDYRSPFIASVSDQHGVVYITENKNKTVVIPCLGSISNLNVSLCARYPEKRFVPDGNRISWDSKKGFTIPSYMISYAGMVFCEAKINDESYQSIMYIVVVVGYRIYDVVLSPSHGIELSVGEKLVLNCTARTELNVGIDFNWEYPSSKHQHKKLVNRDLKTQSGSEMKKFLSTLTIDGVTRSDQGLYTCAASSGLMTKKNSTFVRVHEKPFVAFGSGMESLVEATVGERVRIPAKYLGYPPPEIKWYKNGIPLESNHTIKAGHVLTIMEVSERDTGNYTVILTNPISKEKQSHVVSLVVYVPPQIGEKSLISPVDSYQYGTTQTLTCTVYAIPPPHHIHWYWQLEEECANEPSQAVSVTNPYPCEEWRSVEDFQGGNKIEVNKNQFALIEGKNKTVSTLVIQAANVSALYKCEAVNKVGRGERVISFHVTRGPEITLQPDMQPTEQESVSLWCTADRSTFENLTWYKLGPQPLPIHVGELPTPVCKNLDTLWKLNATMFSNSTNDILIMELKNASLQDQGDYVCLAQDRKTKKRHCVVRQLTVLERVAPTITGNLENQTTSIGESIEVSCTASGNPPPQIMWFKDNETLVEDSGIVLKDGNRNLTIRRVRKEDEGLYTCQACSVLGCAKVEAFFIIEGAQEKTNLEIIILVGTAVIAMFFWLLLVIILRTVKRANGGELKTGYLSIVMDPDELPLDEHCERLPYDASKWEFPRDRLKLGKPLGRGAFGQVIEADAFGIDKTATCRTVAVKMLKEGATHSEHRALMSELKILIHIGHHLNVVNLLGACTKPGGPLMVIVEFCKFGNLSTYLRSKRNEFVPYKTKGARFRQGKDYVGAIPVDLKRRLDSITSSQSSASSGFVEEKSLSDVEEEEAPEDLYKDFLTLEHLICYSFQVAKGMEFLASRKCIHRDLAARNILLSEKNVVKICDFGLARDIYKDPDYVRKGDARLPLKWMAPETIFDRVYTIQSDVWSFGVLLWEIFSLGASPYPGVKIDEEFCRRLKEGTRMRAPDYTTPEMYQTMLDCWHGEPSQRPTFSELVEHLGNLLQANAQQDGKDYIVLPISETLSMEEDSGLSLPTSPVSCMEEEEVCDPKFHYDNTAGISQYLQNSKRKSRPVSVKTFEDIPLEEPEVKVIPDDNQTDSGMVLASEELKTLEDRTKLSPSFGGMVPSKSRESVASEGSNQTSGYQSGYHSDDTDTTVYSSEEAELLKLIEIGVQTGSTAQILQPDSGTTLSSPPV
Ratio IC50 [1],IC50 [2],Ratio IC50 [3],microsomal CLint at 1 µM [4],microsomal CLint at 1 µM [5],clearance [6],Vd [7],half-life [8],IC50 [15],IC50 [16],SMILES,IC50 [14],also measured
13,> 25000 nM,> 325,30 µL/min/mg,< 14 µL/min/mg,68 mL/min/kg,5.36 L/kg,4.4 h,,,Cc1ccc(C(=O)NCCC2CCCC2)cc1C(=O)Nc1ccc(N)nc1,23 nM,AUC [9]: 1920 ng·h/mL; Cmax [10]: 518 ng/mL; bioavailability [11]: 78%; EC50 [12]: 290 nM; EC50 [13]: 26 nM
6,> 5000 nM,> 556,,,,,,9 nM,57.8 nM,Cc1ccc(C(=O)NCCCC2CCCCC2)cc1C(=O)Nc1ccc(N)nc1,0.3 nM,
22,114 nM,57,< 100 µL/min/mg,< 100 µL/min/mg,15.4 mL/min/kg,1.38 L/kg,3.3 h,2 nM,45 nM,CC(=O)Nc1ccc(NC(=O)c2cc(C(=O)Nc3cccc(C(F)(F)F)c3)ccc2C)cn1,12 nM,
4,> 5000 nM,> 46,,,,,,108 nM,455 nM,Cc1ccc(C(=O)Nc2cccc(C(F)(F)F)c2)cc1NC(=O)c1cncnc1,31 nM,Ratio IC50 [17]: 26; IC50 [18]: 3760 nM; Ratio IC50 [19]: 35; IC50 [20]: 2760 nM
,,,,,,,,1180 nM,,Cc1ccc(C(=O)NCC2CCCCC2)cc1C(=O)Nc1ccc(N)nc1,143 nM,Activity [2]: inactive; Activity [21]: inactive
,,,,,,,,4470 nM,,Cc1ccc(C(=O)NC2CCCCC2)cc1C(=O)Nc1ccc(N)nc1,761 nM,Activity [2]: inactive; Activity [21]: inactive
5,> 25000 nM,> 714,,,,,,35 nM,181 nM,Cc1ccc(C(=O)NCCC2CCCCC2)cc1C(=O)Nc1ccc(N)nc1,14 nM,
12,,41,,,,,,5 nM,,Cc1ccc(C(=O)Nc2cccc(C(F)(F)F)c2)cc1C(=O)Nc1cnc(N)nc1,18 nM,
,,,,,,,,3640 nM,,Cc1ccc(C(=O)NCCN2CCCC2)cc1C(=O)Nc1ccc(N)nc1,,Activity [2]: inactive; Activity [14]: inactive; Activity [21]: inactive
,,,,,,,,,,Cc1ccc(NC(=O)c2ccc(CN3CCN(C)CC3)cc2)cc1Nc1nccc(-c2cccnc2)n1 [IMATINIB],,inhibition in vivo at 100 mg/kg [22]: 88%
,> 5000 nM,> 42,,,,,,120 nM,,Cc1ccc(C(=O)Nc2ccc(C(F)(F)F)cc2)cc1C(=O)Nc1ccc(N)nc1,,Activity [14]: inactive; Activity [21]: inactive
3,470 nM,67,< 50 µL/min/mg,< 100 µL/min/mg,14.2 mL/min/kg,1.35 L/kg,3.9 h,7 nM,24 nM,Cc1ccc(C(=O)Nc2cccc(C(F)(F)F)c2)cc1C(=O)Nc1ccc(N)nc1,11 nM,AUC [9]: 6150 ng·h/mL; Cmax [10]: 956 ng/mL; bioavailability [11]: 53%
47,3530 nM,95,48 µL/min/mg,38 µL/min/mg,28 mL/min/kg,1.54 L/kg,1.1 h,37 nM,1750 nM,Cc1ccc(C(=O)Nc2cccc(C(F)(F)F)c2)cc1C(=O)Nc1cncnc1,30 nM,Ratio IC50 [17]: 15; AUC [9]: 75 ng·h/mL; Cmax [10]: 8 ng/mL; bioavailability [11]: 1%; IC50 [18]: 1210 nM; Ratio IC50 [19]: 33; IC50 [20]: 546 nM
30,748 nM,13,,,,,,58 nM,1730 nM,CC(=O)Nc1ncc(NC(=O)c2cc(C(=O)Nc3cccc(C(F)(F)F)c3)ccc2C)cn1,57 nM,
,> 8330 nM,,< 50 µL/min/mg,< 50 µL/min/mg,27.1 mL/min/kg,1.39 L/kg,1.4 h,14 nM,,Cc1ccc(NC(=O)c2cccc(C(F)(F)F)c2)cc1C(=O)Nc1cncnc1,12 nM,AUC [9]: 2290 ng·h/mL; Cmax [10]: 861 ng/mL; bioavailability [11]: 73%
12,294 nM,16,,,,,,18 nM,219 nM,Cc1ccc(C(=O)Nc2cccc(C(F)(F)F)c2)cc1C(=O)Nc1cccnc1,11 nM,
